Reference: US20170281651A1, “CONCOMITANT ADMINISTRATION OF GLUCOCORTICOID RECEPTOR MODULATORS AND CYP3A OR STEROIDOGENESIS INHIBITORS” (Corcept Therapeutics, Inc., priority 2017, published 2017)
Read-outs that look alike come from different tables or passages of the source.

Legend:
[1] = Example 1: safety (adverse events, laboratory tests, ECG); type: in vivo, human
Procedure: In cohort 1, six subjects received ketoconazole 400 mg OD for 14 days.
In cohort 2, six subjects received ketoconazole 200 mg BID for 14 days. […] All 12 subjects completed the study. Cohort 2 subjects participated in a Screening visit to assess eligibility and a check-in Day (Day −1) during which eligibility was re-confirmed. […] The evening of Day 1, subjects received 200 mg oral ketoconazole. Subjects remained in the clinic on Days 2, 3 and 4 to receive 200 mg BID oral ketoconazole, and for safety evaluation and collection of blood pharmacokinetic (PK) samples. Subjects were discharged from the clinic on Day 4 following evening administration of 200 mg oral ketoconazole, and returned to the clinic the morning and evening of Days 5 through 13 to receive 200 mg BID oral ketoconazole. Morning doses of ketoconazole on Days 0-13 were administered in the fasted state.
Subjects in both cohorts returned to the study center on Day 15 for safety monitoring, and completion of the Termination Visit procedures, followed by discharge from the study. Safety was assessed by spontaneously reported adverse events, physical examinations, and routine clinical laboratory tests. To the extent possible, any adverse events deemed study drug-related and that were ongoing at the time of discharge from the study were followed-up to resolution or until a determination is made that the unresolved event was stable.

[2] = Example 2: effect of a 400 mg single dose of ketoconazole on PK of an 8-day regimen of 300 mg or 600 mg OD mifepristone, moderate fat breakfast; type: in vivo, human; details: for Cmax / AUC(0-t) / Tmax / half-life: male, human, plasma, oral; for AUC(0-t): read-out: AUCt (AUC0-24 hours, mean); for Tmax: read-out: Tmax (median); for half-life: read-out: T1/2 (mean) (converted)
Procedure: This was an open-label study in healthy male subjects. […] The 400 mg single dose of ketoconazole was given to all subjects on day 8.
METHODOLOGY: Twelve subjects were enrolled, six in Cohort 1 and 6 in Cohort 2.
Subjects were discharged on Day 11.
Subjects were discharged on Day 11. Subjects in both cohorts returned to study center on Day 13 for safety monitoring, collection of the 120-hour PK draw, and completion of the Termination Visit procedures, followed by discharge from the study. To the extent possible, any adverse events deemed study drug-related and that were ongoing at the time of discharge from the study were followed-up to resolution or until a determination was made that the unresolved event was stable.
DIAGNOSIS AND MAIN […] FOR INCLUSION: Healthy male volunteers between the ages of 18 to 45 years of age with a body mass index (BMI) ranging between 19 and 32 kg/m2 and a weight of at least 60 kg (132 lbs) were enrolled. Subjects had no clinically significant abnormal findings on the physical examination, ECG, blood pressure, heart rate, medical history, or clinical laboratory results during screening. The QTc interval at screening was less than 450 msec.
DURATION OF TREATMENT: Up to a total of 28 days, including up to 2 weeks screening, dosing on Days 1-8, safety observation, and PK sample collection through Day 13.
Additionally, comparisons were made between the PK results of cohort 1 and 2. Pharmacokinetic parameters Cmax, T1/2 and total AUC were calculated for plasma concentrations of ketoconazole following the single dose on Day 8. Descriptive statistics (count, mean, median, standard deviation, minimum, maximum, and % coefficient of variation) were provided. Ketoconazole concentrations were listed and summarized. GM means of Cmax and total AUC were compared for the single dose in this study to the combined data of reported 400 mg single doses of ketoconazole of healthy subjects from the literature.

[3] = mifepristone 300 mg single dose with ketoconazole for 14 days
[4] = C1 Day 8/Day 7 (300 mg/d, with vs without 400 mg Keto)
[5] = C2 Day 8/Day 7 (600 mg/d, with vs without 400 mg Keto)
[6] = Cohort 1 (300 mg OD), Day 8 with 400 mg ketoconazole relative to Day 7 without
[7] = Cohort 2 (600 mg OD), Day 8 with 400 mg ketoconazole vs Day 7
[8] = Day 7 C2/C1 (600 vs 300 mg/d, no ketoconazole)
[9] = Day 8 C2/C1 (600 vs 300 mg/d, with 400 mg Keto)
[10] = Day 8 in the presence of 400 mg ketoconazole
[11] = 300 mg/d, MIFE 300 mg/d, C1 Day 7, no ketoconazole
[12] = 600 mg/d, MIFE 600 mg/d, C2 Day 7, no ketoconazole
[13] = MIFE 300 mg/d, C1 Day 8, + 400 mg Keto single dose
[14] = MIFE 600 mg/d, C2 Day 8, + 400 mg Keto single dose

CC#C[C@]1(O)CC[C@H]2[C@@H]3CCC4=CC(=O)CCC4=C3[C@@H](c3ccc(N(C)C)cc3)C[C@@]21C [mifepristone, 11β-(4-dimethylaminophenyl)-17β-hydroxy-17α-(1-propynyl)-estra-4,9-dien-3-one]
safety and tolerability ([1]; 300 mg single-dose fasted with ketoconazole 400 mg OD or 200 mg BID for 14 days, healthy volunteers): safe and well tolerated | subjects with at least one treatment emergent adverse event (TEAE) ([1]; 12 subjects, mifepristone 300 mg single dose with ketoconazole for 14 days): 25% | changes in ECG parameters ([1]; mifepristone 300 mg single dose with ketoconazole): No clinically significant changes | SAE or AE resulting in discontinuation [1, 3]: No subject experienced a serious adverse effect (SAE), or an adverse event (AE) that resulted in discontinuation | TEAEs considered by the investigator to be related to the drug [1, 3]: No TEAE | Mean Ratio AUCt [2, 4]: 1.25 | Mean Ratio Cmax [2, 4]: 1.19 | Mean Ratio AUCt [2, 5]: 1.28 | Mean Ratio Cmax [2, 5]: 1.39 | increase in AUC0-24 [2, 6]: 25% | increase in Cmax [2, 6]: 20% | increase in AUC0-24 [2, 7]: 28% | increase in Cmax [2, 7]: 39% | Mean Ratio AUCt [2, 8]: 1.48 | Mean Ratio Cmax [2, 8]: 1.42 | AUC0-24 greater at 600 mg OD than at 300 mg OD ([2]; Day 7 without ketoconazole): 48% | Cmax greater at 600 mg OD than at 300 mg OD ([2]; Day 7 without ketoconazole): 42% | Mean Ratio AUCt [2, 9]: 1.52 | Mean Ratio Cmax [2, 9]: 1.65 | AUC0-24 greater at 600 mg OD than at 300 mg OD [2, 10]: 52% | Cmax greater at 600 mg OD than at 300 mg OD [2, 10]: 65% | half-life greater at 600 mg OD than at 300 mg OD [2, 10]: 13% | Cmax [2, 11]: 2700 ng/mL | AUC(0-t) [2, 11]: 37700 ng·h/mL | Tmax [2, 11]: 3 h | Cmax [2, 12]: 3820 ng/mL | AUC(0-t) [2, 12]: 54200 ng·h/mL | Tmax [2, 12]: 4 h | Cmax [2, 13]: 3240 ng/mL | AUC(0-t) [2, 13]: 47400 ng·h/mL | half-life [2, 13]: 84.9 h | Tmax [2, 13]: 2.1 h | Cmax [2, 14]: 5260 ng/mL | AUC(0-t) [2, 14]: 69100 ng·h/mL | half-life [2, 14]: 96.2 h | Tmax [2, 14]: 4 h
